# Test results as given in patent US8841413B2, “Antidiabetic compounds” (Cadila Healthcare Limited, priority 2006, dated 2014).
# Tests used:
# [1] = test system: RIN5F (Rat Insulinoma) cells; assay: In vitro glucose-dependent insulin secretion (RIN5F cell assay); format: cell-based; conditions: 16.7 mM glucose load, mean ± S.D., n = 3
# Procedure: After trypsinization, RIN5F cells were seeded at a concentration of 0.2×10^6·cells per well, in 12 well plates.
# The supernatant was collected and the insulin amount was measured by ultra sensitive Rat insulin ELISA kit (Crystal Chem, Ill.). The protein was estimated in the supernatant using Bicinchoninic Acid kit, according to the manufacturer's protocol (Sigma Aldrich, Mo.). The total insulin content obtained in Pico-gram (pg) was divided with the total protein (μg) in order to normalize for differences in cell density between wells.
# [2] = biological target: T1, human glucagon receptor (Homo sapiens, UniProt P47871); assay: In vitro human glucagon antagonist activity (inhibition of cAMP production), CHO/human glucagon R cells; format: cell-based
# T1 construct: The full-length cDNA was cloned in pcDNA3.1(Invitrogen); expressed in transfected cells
# T1 sequence (P47871 26-477): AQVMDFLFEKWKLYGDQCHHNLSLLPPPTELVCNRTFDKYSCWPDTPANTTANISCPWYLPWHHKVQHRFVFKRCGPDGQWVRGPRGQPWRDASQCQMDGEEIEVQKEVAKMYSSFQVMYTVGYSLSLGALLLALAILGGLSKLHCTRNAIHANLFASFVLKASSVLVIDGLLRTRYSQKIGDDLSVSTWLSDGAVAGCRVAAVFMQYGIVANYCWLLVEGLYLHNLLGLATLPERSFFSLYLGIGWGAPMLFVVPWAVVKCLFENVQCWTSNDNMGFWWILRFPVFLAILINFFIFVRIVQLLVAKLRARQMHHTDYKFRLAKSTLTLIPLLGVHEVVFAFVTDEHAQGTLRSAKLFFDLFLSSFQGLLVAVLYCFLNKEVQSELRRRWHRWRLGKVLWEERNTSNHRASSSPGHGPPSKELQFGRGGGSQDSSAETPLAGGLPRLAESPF
# Procedure: CHO cells were grown in Ham's F12 medium containing L-Glutamine (2 mM), HEPES (25 mM), NaHCO3 (1.1 g/L) and supplemented with newborn Calf Serum (NBCS; 10%), Penicillin (50 U/ml (v/v)) and Streptomycin (50 ug/ml (v/v)). Cells were split every 3 days 1:8.
# The full-length cDNA was cloned in pcDNA3.1(Invitrogen). […] Clones expressing the receptor were generated by G418 (800 μg/ml active, Sigma) selection. The stable clones were thereafter maintained at 500 ug/ml (G418). The selected clone was used between passages 9-25 for cAMP assays.
# The trypsin was inactivated using Ham's F12 medium containing 10% NBCS and the cells were suspended in 2 ml of complete medium. […] The medium was aspirated off from the 12 well plate and the cells were washed once using Ham's F12 (plain). […] After the incubation; the medium was removed and cells were washed once with plain Ham's F12. Subsequently, the cells were lysed by adding 500 ul of ice cold 0.1 N HCl to each well and shaking for 30 minutes at 200 rpm. The cells were then scrapped, the lysate was collected in micro centrifuge tubes and centrifuged at 12000 rpm for 10 min to remove the debris. 300 ul of supernatant from each micro-centrifuge tube was then removed into a glass tube and dried under N2 for 30 min, for cAMP estimation. The total cAMP was estimated from the sample according to the manufacturer's protocol using Cyclic AMP immunoassay kit (R&D systems, Minneapolis: MN). The remaining supernatant is used to determine the protein concentration using micro BCA (Sigma). Data is calculated as percent of control (Vehicle: water) and expressed as Mean+SD.
# [3] = biological target: DPP IV (Homo sapiens, UniProt P27487); assay: Stability against DPP IV enzyme; format: in vitro ADME; conditions: 2 μM, 37° C., 24 h
# DPP IV, sequence (P27487 whole entry, species assumed): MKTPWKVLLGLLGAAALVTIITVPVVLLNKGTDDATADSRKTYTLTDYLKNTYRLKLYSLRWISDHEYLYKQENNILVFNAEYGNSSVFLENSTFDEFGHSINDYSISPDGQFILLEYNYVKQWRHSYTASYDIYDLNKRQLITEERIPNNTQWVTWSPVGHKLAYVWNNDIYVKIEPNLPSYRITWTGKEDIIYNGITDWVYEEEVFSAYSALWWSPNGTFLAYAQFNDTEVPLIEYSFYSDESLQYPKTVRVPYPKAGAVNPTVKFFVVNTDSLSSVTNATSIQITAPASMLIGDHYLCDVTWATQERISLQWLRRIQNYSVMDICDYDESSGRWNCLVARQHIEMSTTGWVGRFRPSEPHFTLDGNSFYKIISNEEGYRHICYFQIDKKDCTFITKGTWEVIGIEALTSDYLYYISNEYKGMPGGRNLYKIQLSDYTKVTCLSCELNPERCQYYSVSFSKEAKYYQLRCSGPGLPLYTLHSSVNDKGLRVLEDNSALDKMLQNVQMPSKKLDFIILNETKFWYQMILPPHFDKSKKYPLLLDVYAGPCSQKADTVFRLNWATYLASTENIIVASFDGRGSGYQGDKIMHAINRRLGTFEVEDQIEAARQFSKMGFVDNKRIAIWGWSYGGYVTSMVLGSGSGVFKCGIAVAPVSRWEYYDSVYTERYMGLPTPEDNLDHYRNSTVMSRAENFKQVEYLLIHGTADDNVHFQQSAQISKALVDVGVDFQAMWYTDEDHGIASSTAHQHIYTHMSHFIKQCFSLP
# Procedure, shortened: (§1)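 UV detection at 206 nm tracked the remaining material after HPLC separation at a flow of 1 mL/min in TFA/H2O. Incubations had been ended by adding aqueous TFA (10%, v/v), and eluted peaks were identified by ESI-MS.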
# [4] = Stability in human plasma; format: in vitro ADME; conditions: 2 μM, 37° C.
# Procedure, shortened: as §1
# [5] = Stability in simulated gastric fluid; format: in vitro ADME; conditions: 37° C., pH 1.5, pepsin; for % degradation in 24 h when incubated with simulated gastric fluid: 2 μM; for half-life at 2 μM: simulated gastric fluid with pepsin, read-out: half-life (t1/2) in simulated gastric fluid
# Procedure, shortened: as §1
# [6] = Stability in simulated intestinal fluid; format: in vitro ADME; conditions: 37° C.; for % degradation in 24 h when incubated with simulated intestinal fluid: 2 μM, pH 7.5; for half-life at 2 μM: simulated intestinal fluid, pH 7.5, read-out: half-life (t1/2) in simulated intestinal fluid
# Procedure, shortened: as §1
# [7] = Stability against liver microsomes; format: in vitro ADME, human; conditions: for % degradation in 24 h when incubated with liver microsomes: 2 μM, 37° C.; for half-life at 2 μM: human, human liver microsomes, pH 7.8, 37° C., read-out: half-life (t1/2) with liver microsomes
# Procedure, shortened: as §1
# [8] = 1 nM test compound (fourth concentration column, between 100 nM and 10 μM) with saturated concentration of glucagon peptide
# [9] = 1 nM test compound with saturated concentration of glucagon peptide
# [10] = 10 nM test compound with saturated concentration of glucagon peptide
# [11] = 100 nM test compound with saturated concentration of glucagon peptide
# [12] = 10 μM test compound with saturated concentration of glucagon peptide
Compound,Insulin secretion ([1]; 0.1 nM test compd.) [pg/µg/h],Insulin secretion ([1]; 1 nM test compd.) [pg/µg/h],Insulin secretion ([1]; 10 nM test compd.) [pg/µg/h],"Human Glucagon receptor antagonistic activity, inhibition of cAMP production of Glucagon peptide [2, 8] [pmol/ml/μg prt]","Human Glucagon receptor antagonistic activity, inhibition of cAMP production of Glucagon peptide [2, 9] [pmol/ml/μg prt]","Human Glucagon receptor antagonistic activity, inhibition of cAMP production of Glucagon peptide [2, 10] [pmol/ml/μg prt]","Human Glucagon receptor antagonistic activity, inhibition of cAMP production of Glucagon peptide [2, 11] [pmol/ml/μg prt]","Human Glucagon receptor antagonistic activity, inhibition of cAMP production of Glucagon peptide [2, 12] [pmol/ml/μg prt]",% degradation in 24 h when incubated with DPP-IV enzyme [3] [%],half-life (t1/2) in human plasma [4],% degradation in 24 h when incubated with human plasma [4] [%],% degradation in 24 h when incubated with simulated gastric fluid [5] [%],half-life at 2 μM [5] [min],% degradation in 24 h when incubated with simulated intestinal fluid [6] [%],half-life at 2 μM [6] [min],% degradation in 24 h when incubated with liver microsomes [7] [%],half-life at 2 μM [7] [min]
"CCc1cc(OC)ccc1-c1ccc(CC(NC(=O)[C@H](CC(=O)O)NC(=O)[C@H](CO)NC(=O)[C@@H](NC(=O)[C@H](Cc2ccccc2)NC(=O)[C@@H](NC(=O)CNC(=O)[C@H](CCC(N)=O)NC(=O)[C@H](CO)NC(=O)[C@@H](N)Cc2c[nH]cn2)[C@@H](C)O)[C@@H](C)O)C(=O)NC(Cc2ccc(-c3ccccc3C)cc2)C(N)=O)cc1 (single isomer, unassigned) [compound 5]",12.1 ± 0.52,14.1 ± 0.16,28.0 ± 0.36,14 ± 0.03,20 ± 0.06,18 ± 0.09,16 ± 0.01,12 ± 0.01,76,(9) h,78,100,30,100,30,100,30
"CCc1cc(OC)ccc1-c1ccc(CC(NC(=O)[C@H](CC(=O)O)NC(=O)[C@H](CO)NC(=O)[C@@H](NC(=O)[C@H](Cc2ccccc2)NC(=O)[C@@H](NC(=O)CNC(=O)[C@H](CCC(N)=O)NC(=O)[C@H](CO)NC(=O)[C@@H](N)Cc2c[nH]cn2)[C@@H](C)O)[C@@H](C)O)C(=O)NC(Cc2ccc(-c3ccccc3C)nc2)C(N)=O)cc1 (single isomer, unassigned) [compound 6]",12.4 ± 0.26,15.2 ± 0.33,29.6 ± 0.51,–,–,–,–,–,75,(9) h,77,100,30,100,30,100,30
"CCc1cc(OC)ccc1-c1ccc(CC(NC(=O)[C@H](CC(=O)O)NC(=O)[C@H](CO)NC(=O)[C@@H](NC(=O)[C@H](Cc2ccccc2)NC(=O)[C@@H](NC(=O)CNC(=O)[C@H](CCC(N)=O)NC(=O)[C@H](CO)NC(=O)[C@@H](N)Cc2c[nH]cn2)[C@@H](C)O)[C@@H](C)O)C(=O)NC(Cc2ccc(-c3ccccc3F)cc2)C(N)=O)cc1 (single isomer, unassigned) [compound 7]",11.1 ± 0.12,13.1 ± 0.13,19.0 ± 0.16,0,6 ± 0.02,5 ± 0.03,2 ± 0.61,0,77,(9) h,80,100,30,100,30,100,30
"CCc1cc(OC)ccc1-c1ccc(CC(NC(=O)[C@H](CC(=O)O)NC(=O)[C@H](CO)NC(=O)[C@@H](NC(=O)[C@H](Cc2ccccc2)NC(=O)[C@@H](NC(=O)CNC(=O)[C@H](CCC(N)=O)NC(=O)[C@H](CO)NC(=O)[C@@H](N)Cc2c[nH]cn2)[C@@H](C)O)[C@@H](C)O)C(=O)NC(Cc2ccc(-c3ccccc3C(F)(F)F)cc2)C(N)=O)cc1 (single isomer, unassigned) [compound 8]",12.6 ± 0.20,15.9 ± 0.31,28.4 ± 0.11,0,4 ± 0.01,2 ± 0.17,0,0,76,(9) h,78,100,30,100,30,100,30
"CCc1cc(OC)ccc1-c1ccc(CC(NC(=O)[C@H](CC(=O)O)NC(=O)[C@H](CO)NC(=O)[C@@H](NC(=O)[C@H](Cc2ccccc2)NC(=O)[C@@H](NC(=O)CNC(=O)[C@H](CCC(N)=O)NC(=O)[C@H](C)NC(=O)[C@@H](N)Cc2c[nH]cn2)[C@@H](C)O)[C@@H](C)O)C(=O)NC(Cc2ccc(-c3ccccc3C)cc2)C(N)=O)cc1 (single isomer, unassigned) [compound 9]",11.8 ± 0.50,14.9 ± 0.11,27.9 ± 0.31,8 ± 0.02,18 ± 0.07,16 ± 0.01,12 ± 0.03,6 ± 0.08,74,(9) h,75,100,30,100,30,100,30
